Measurements as given in patent US9505774B2, “Polymorphic forms of icotinib maleate and uses thereof” (BETTA PHARMACEUTICALS CO., LTD., priority 2013, dated 2016).
Where a name gives a salt, the structure may show the parent alone.

Test: Pharmacokinetic study of Icotinib hydrochloride and Polymorph Form II of Icotinib maleate, oral suspension, plasma by HPLC
Type: in vivo
Settings: Sprague-Dawley (SD), rat, fasted male SD rats, oral suspension in sodium carboxymethyl cellulose, dose equivalent to 35 mg/kg Icotinib; for AUC(0-t): read-out: AUC(0-24)
From the text: Drugs and reagents: the Icotinib hydrochloride used in this study was of Crystalline Form I disclosed by the WO2010/003313. Polymorph Form II of Icotinib maleate and Icotinib hydrochloride were ground to fine particles. The material content (purity) was not less than 99.0%. Sodium carboxymethyl cellulose was medical supply graded.
Experimental animals: SD rats were divided to an Icotinib hydrochloride group and a Polymorph Form II group, with both groups consisting of males.
Pharmaceutical preparation: the amount of each compound was weighed and then sodium carboxymethyl cellulose was added to result in the test compound's concentration of 0.5%. The solid mixture was then added to prepare a suspension thereof at a final concentration of […] in water.
Administration and sample collection: each suspension was administered orally to fasted SD rats at a dose equivalent to 35 mg/kg Icotinib in a dose volume of 5 ml/kg. 0.4 ml of blood was collected in EDTA-K pre anticoagulant tubes at time intervals of 0.5, 1, 1.5, 2, 4, 6, 8 and 24 hrs after the administration of the test compound, centrifuged at 3000 rpm for 10 minutes, and 120 μl plasma was collected and kept in cold storage.
Samples were analyzed by high performance liquid chromatography. The chromatographic conditions utilized C18-silane bonded silica as stationary phase, 0.02 mol/L of sodium dihydrogen phosphate in acetonitrile (40:60, using sodium hydroxide solution to adjust pH to 5.0) as the mobile phase and a detection wavelength of 334 nm. PK profile comparison of Polymorph Form II of Icotinib maleate and Crystalline Form I of Icotinib hydrochloride was summarized in Table 1 and FIG. 3.

AUC(0-inf)	Cmax	Tmax	half-life	AUC(0-t)	Compound
65400 ng·h/mL	7530 ng/mL	5.33 h	3.06 h	64800 ng·h/mL	C#Cc1cccc(Nc2ncnc3cc4c(cc23)OCCOCCOCCO4)c1.O=C(O)/C=C\C(=O)O [Form II, Icotinib maleate]
19100 ng·h/mL	3360 ng/mL	2.33 h	2.94 h	19000 ng·h/mL	C#Cc1cccc(Nc2ncnc3cc4c(cc23)OCCOCCOCCO4)c1 [Icotinib hydrochloride]
